According to patent US8030344B2, “Inhibitors of histone deacetylase” (MethylGene Inc., priority 2007, dated 2011):

Tests used:
HDAC-2 = HDAC-2 (Homo sapiens, UniProt Q92769); test: Similar assay measuring HDAC-2 inhibitory activity; format: biochemical
Experimental: (§1) The following protocol is used to assay the compounds of the invention. In the assay, the buffer used is 25 mM HEPES, pH 8.0, 137 mM NaCl, 2.7 mM KCl, 1 mM MgCl2 and the substrate is Boc-Lys(Ac)-AMC in a 50 mM stock solution in DMSO. The enzyme stock solution is 4.08 μg/mL in buffer.
(§2) The compounds are pre-incubated (2 μl in DMSO diluted to 13 μl in buffer for transfer to assay plate) with enzyme (20 μl of 4.08 μg/ml) for 10 minutes at room temperature (35 μl pre-incubation volume). The mixture is pre-incubated for 5 minutes at room temperature. The reaction is started by bringing the temperature to 37° C. and adding 15 μl substrate. Total reaction volume is 50 μl. The reaction is stopped after 20 minutes by addition of 50 μl developer, prepared as directed by Biomol (Fluor-de-Lys developer, Cat. # KI-105). A plate is incubated in the dark for 10 minutes at room temperature before reading (λEx=360 nm, λEm=470 nm, Cutoff filter at 435 nm). Similar assays are performed to measure HDAC-2 inhibitory activity

HCT116 cells = test: MTT assay on HCT116 cells; format: cell-based; conditions: Homo sapiens, HCT-116; 72 hours incubation; concentration reducing cell numbers to 50% of solvent treated cells
Experimental: (§3) HCT116 cells (2000/well) are plated into 96-well tissue culture plates one day before compound treatment. Representative compounds at various concentrations were added to the cells. The cells are incubated for 72 hours at 37° C. in 5% CO2 incubator. MTT (3-[4,5-dimethylthiazol-2-yl]-2,5 diphenyl tetrazolium bromide, Sigma) is added at a final concentration of 0.5 mg/ml and incubated with the cells for 4 hours before one volume of solubilization buffer (50% N,N-dimethylformamide, 20% SDS, pH 4.7) is added onto the cultured cells. After overnight incubation, solubilized dye is quantified by calorimetric reading at 570 nM using a reference at 630 nM. OD values are converted to cell numbers according to a standard growth curve of the relevant cell line. The concentration which reduces cell numbers to 50% of that of solvent treated cells is determined as MTT IC50. A similar assay is performed on HMEC cells.

HMEC cells = test: MTT assay on HMEC cells; format: cell-based; conditions: Homo sapiens; similar MTT assay on HMEC cells
Experimental: as §3

HDAC-1 = HDAC-1 (Homo sapiens, UniProt Q13547); test: Inhibition of histone deacetylase enzymatic (HDAC-1) activity, Boc-Lys(Ac)-AMC fluorescence assay; format: biochemical
Sequence of HDAC-1 (Q13547 whole entry): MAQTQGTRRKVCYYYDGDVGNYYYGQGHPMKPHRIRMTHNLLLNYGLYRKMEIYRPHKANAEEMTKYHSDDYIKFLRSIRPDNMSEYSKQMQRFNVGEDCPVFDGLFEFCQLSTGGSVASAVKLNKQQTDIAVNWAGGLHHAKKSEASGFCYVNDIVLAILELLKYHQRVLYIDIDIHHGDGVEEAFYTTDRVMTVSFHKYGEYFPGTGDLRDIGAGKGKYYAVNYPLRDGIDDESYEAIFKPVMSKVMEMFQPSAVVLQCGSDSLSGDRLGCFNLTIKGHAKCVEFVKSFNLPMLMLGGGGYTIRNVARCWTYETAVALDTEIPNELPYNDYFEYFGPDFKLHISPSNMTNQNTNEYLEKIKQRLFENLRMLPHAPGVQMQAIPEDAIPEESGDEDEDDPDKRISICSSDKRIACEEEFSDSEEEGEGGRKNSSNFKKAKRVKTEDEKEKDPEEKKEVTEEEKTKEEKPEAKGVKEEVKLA
Experimental: Inhibition of Histone Deacetylase Enzymatic (HDAC-1) Activity
as §1, §2

Sequence of HDAC-2 (Q92769 whole entry): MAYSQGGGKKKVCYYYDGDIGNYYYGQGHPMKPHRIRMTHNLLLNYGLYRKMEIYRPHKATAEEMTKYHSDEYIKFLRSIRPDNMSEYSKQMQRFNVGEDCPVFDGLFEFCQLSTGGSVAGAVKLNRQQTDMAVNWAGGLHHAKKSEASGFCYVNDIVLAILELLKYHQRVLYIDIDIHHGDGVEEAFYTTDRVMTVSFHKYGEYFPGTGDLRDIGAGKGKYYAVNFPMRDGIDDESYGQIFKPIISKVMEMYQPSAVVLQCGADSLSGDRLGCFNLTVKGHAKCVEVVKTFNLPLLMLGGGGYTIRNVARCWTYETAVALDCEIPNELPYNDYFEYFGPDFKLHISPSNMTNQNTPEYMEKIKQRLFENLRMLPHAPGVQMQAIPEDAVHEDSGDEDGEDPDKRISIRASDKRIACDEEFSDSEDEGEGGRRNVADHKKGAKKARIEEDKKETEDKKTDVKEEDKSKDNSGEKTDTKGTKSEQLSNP

IC50 (HDAC-2) [nM]	IC50 (HCT116 cells) [nM]	IC50 (HDAC-1) [nM]	SMILES	IC50 (HMEC cells) [nM]
≤ 500	≤ 500	≤ 100	Nc1ccccc1NC(=O)c1ccc(N2CC[C@H](NC(=O)OCc3ccoc3)C2)cc1 [Compound 145, (S)-Furan-3-ylmethyl 1-(4-(2-aminophenylcarbamoyl)phenyl) pyrrolidin-3-yl carbamate]	≤ 50000
≤ 1000	≤ 1000	≤ 500	CCOC(=O)N[C@H]1CCN(c2ccc(C(=O)Nc3ccccc3N)cn2)C1 [Compound 156, (S)-Ethyl 1-(5-(2-aminophenylcarbamoyl)pyridin-2-yl)pyrrolidin-3-ylcarbamate]	≤ 50000
≤ 500	≤ 1000	≤ 500	COc1cc(CN(C(=O)OCc2ccccc2)[C@H]2CCN(c3ccc(C(=O)Nc4ccccc4N)cc3)C2)cc(OC)c1OC [Compound 197, (S)-benzyl 1-(4-(2-aminophenylcarbamoyl)phenyl)-pyrrolidin-3-yl(3,4,5-trimethoxybenzyl)carbamate]	> 50000
≤ 500	≤ 500	≤ 100	Nc1ccccc1NC(=O)c1ccc(N2CC[C@H](NC(=O)OCC3CC3)C2)cc1 [Compound 199, (S)-cyclopropylmethyl 1-(4-(2-aminophenylcarbamoyl)phenyl)-pyrrolidin-3-ylcarbamate]	≤ 50000
≤ 500	≤ 500	≤ 500	Nc1ccccc1NC(=O)c1ccc(N2CC[C@H](NC(=O)OC3CCOCC3)C2)cc1 [Compound 200, (S)-tetrahydro-2H-pyran-4-yl 1-(4-(2-aminophenylcarbamoyl)phenyl)-pyrrolidin-3-ylcarbamate]	> 50000

Further lines, the compound ahead of its results:

SMILES	IC50 (HDAC-2) [nM]	IC50 (HCT116 cells) [nM]	IC50 (HDAC-1) [nM]	IC50 (HMEC cells) [nM]
COC(=O)N[C@H]1CCN(c2ccc(C(=O)Nc3ccccc3N)cn2)C1 [Compound 155, (S)-Methyl 1-(5-(2-aminophenylcarbamoyl)pyridin-2-yl)pyrrolidin-3-ylcarbamate]	≤ 5000	≤ 5000	≤ 500	≤ 50000
CCNC(=O)O[C@H]1CCN(c2ccc(C(=O)Nc3ccccc3N)cc2)C1 [Compound 162, (S)-1-(4-(2-Aminophenylcarbamoyl)phenyl)pyrrolidin-3-yl ethyl carbamate]	≤ 5000	≤ 5000	≤ 500	> 50000
Nc1ccccc1NC(=O)c1ccc(N2CC[C@H](OC(=S)NCCN3CCOCC3)C2)cc1 [Compound 163, (S)-O-1-(4-(2-Aminophenylcarbamoyl)phenyl)pyrrolidin-3-yl 2-morpholinoethylcarbamothioate]	≤ 5000	≤ 5000	≤ 500	≤ 50000
CC(C)OC(=O)N[C@H]1CCN(c2ccc(C(=O)Nc3ccccc3N)cc2)C1 [Compound 198, (S)-isopropyl 1-(4-(2-aminophenylcarbamoyl)phenyl)-pyrrolidin-3-ylcarbamate]	≤ 500	≤ 1000	≤ 500	≤ 50000
